Assay: Thermal stability compared with IPBC
Type: physicochemical

Compound | thermal stability compared with IPBC
Co-crystal containing 3-iodopropynyl butylcarbamate and 4-[2-(4-pyridinyl)ethyl]pyridine in a 2:1 Molar Ratio [Co-Crystal 1] | higher thermal stability
Co-Crystal Containing 3-iodopropynyl butylcarbamate and N,N′-bis(4-pyridylcarbonyl)-1,6-hexanediamine in a 2:1 Molar Ratio [Co-Crystal 5] | higher thermal stability
CCCCNC(=O)OCC#CI.CCCCNC(=O)OCC#CI.c1cc(-c2ccncc2)ccn1 [Co-Crystal 2, Co-Crystal Containing 3-iodopropynyl butylcarbamate and 4,4′-bipyridine in a 2:1 Molar Ratio] | higher thermal stability

Source: patent US9848599B2, “Co-crystals of 3-iodopropynyl butylcarbamate” (priority 2012, dated 2017)
